The results in this text go back to US20020007060A1, “Reverse hydroxamate inhibitors of matrix metalloproteinases” (priority 1998, published 2002).

Structures are written as SMILES.

Series [1] has as its target T1, Recombinant truncated stromelysin (human sequence) (Homo sapiens, UniProt P08254).
T1 construct: made in house; host or cells: E. coli
In words: Determination of Stromelysin Inhibition. It is filed as biochemical. The settings on record: cleavage of thiopeptide ester substrate Ac-Pro-Leu-Gly-[2-mercapto-4-methyl-pentanoyl]-Leu-Gly-OEt, DTNB read at 405 nm, 30 minute assay at ambient temperature, 50 mM MES/NaOH 6.5. As to the method: The efficacy of the compounds of this invention as matrix metalloproteinase inhibitors was determined by measuring the inhibition of stromelysin. The inhibition of stromelysin by the compounds of this invention was determined as follows: Recombinant truncated stromelysin (human sequence) produced in E. coli was prepared by expression and purification of the protein as described by Ye et al. (Biochemistry, 1992, 31, 11231-11235, which is incorporated herein by reference). The enzyme was assayed by its cleavage of the thiopeptide ester substrate Ac-Pro-Leu-Gly-[2-mercapto-4-methyl-pentanoyl]-Leu-Gly-OEt as described by Weingarten and Feder (Anal. Biochem., 1985, 147, 437-440 (1985), which is incorporated herein by reference) as a substrate of vertebrate collagenase. The reported conditions were modified to allow assays to be carried out in a microtiter plate. Upon hydrolysis of the thioester bond, the released thiol group reacted rapidly with 5,5′-dithio-bis(2-nitrobenzoic acid) (DTNB) to produce a yellow color which was measured by a microtiter plate reader set at 405 nm. The rates of cleavage of the substrate by stromelysin in the presence or absence of inhibitors were measured in a 30 minute assay at ambient temperature. Solutions of the compounds in DMSO were prepared, and these were diluted at various concentrations into the assay buffer (50 mM MES/NaOH 6.5 with 10 mM CaCl2 and 0.2% Pluronic F-68), which was also used for dilution of the enzyme and substrate. The potency of the compounds [IC50] was calculated from the inhibition/inhibitor concentration data.

T1 sequence (P08254 100-272 limits assumed): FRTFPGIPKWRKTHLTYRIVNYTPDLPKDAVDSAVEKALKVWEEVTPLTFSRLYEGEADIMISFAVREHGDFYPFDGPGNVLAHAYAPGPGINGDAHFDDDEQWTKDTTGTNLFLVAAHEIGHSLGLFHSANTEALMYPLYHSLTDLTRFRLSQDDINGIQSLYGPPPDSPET

For the compound `CN1C(=O)N(CCC(COc2ccc(-c3ccc(C#N)cc3)cc2)N(O)C=O)C(=O)C1(C)C` (racemic) [Example 5, (±)-N-[1-[[(4′-cyano-[1,1′-biphenyl]-4-yl)oxy]methyl]-3-(3,4,4-trimethyl-2,5-dioxoimidazolidiny-1-yl)propyl]-N-hydroxyformamide], the melting point is 68 to 70 °C. For the same compound, the IC50 in series [1] is 17 nM.

`CC(C)CC(COc1ccc(-c2ccc(C#N)cc2)cc1)N(O)C=O` (racemic) [Example 7, (±)-N-[1-[[(4′-cyano-[1,1′-biphenyl]-4-yl)oxy]methyl]-3-methylbutyl]-N-hydroxyformamide] came in with a melting point of 112 to 113 °C. Besides, the IC50 in series [1] is 120 nM.

`N#Cc1ccc(-c2ccc(OCCN(O)C=O)cc2)cc1` [Example 15, N-[2-[(4′-cyano-[1,1′-biphenyl]-4-yl)oxy]ethyl]-N-hydroxyformamide] had a melting point of 142 to 145 °C.

`O=CN(O)C(CO)CS(=O)(=O)c1ccc(-c2ccc(OC(F)(F)F)cc2)cc1` (racemic) [Example 151, (±)-N-hydroxy-N-[1-(hydroxymethyl)-2-[[4′-(trifluoromethoxy)[1,1′-biphenyl]-4-yl]sulfonyl]ethyl]formamide] gave a melting point of 167 to 168 °C.

The compound `CN1C(=O)N(CC(COc2ccc(-c3ccc(C#N)cc3)cc2)N(O)C=O)C(=O)C1(C)C` (racemic) [Example 4, (±)-N-[1-[[(4′-cyano-[1,1′-biphenyl]-4-yl)oxy]methyl]-2-(3,4,4-trimethyl-2,5-dioxoimidazolidin-1-yl)ethyl]-N-hydroxyformamide] displayed a melting point of 65 to 67 °C. The IC50 in series [1] came to 9.1 nM.

`CC1(C)NC(=O)N(CC(CS(=O)(=O)c2ccc(-c3ccc(OC(F)(F)F)cc3)cc2)N(O)C=O)C1=O` (stereo not shown) [Example 115, N-[1-[[[4′-(trifluoromethoxy)[1,1′-biphenyl]-4-yl]sulfonyl]methyl]-2-(4,4-dimethyl-2,5-dioxo-1-imidazolidinyl)ethyl]-N-hydroxyformamide] came in with a melting point of 195 to 197 °C.

Consider `O=CN(O)C(CO)CS(=O)(=O)c1ccc(-c2ccc(Cl)cc2)cc1` (racemic) [Example 152, (±)-N-hydroxy-N-[1-(hydroxymethyl)-2-[(4′chloro[1,1′-biphenyl]-4-yl)sulfonyl]ethyl]formamide], for which the melting point was in the range of 153 to 154 °C.
